“Also recorded” adds a separate entry of the source.
Experiments:
mice [1] = assay: Interaction with oxotremorine; type: in vivo, mouse; conditions: i.p.
Procedure: CRL 41 153 is administered to groups of 6 mice 0.5 hour before the intraperitoneal injection of 0.5 mg/kg of oxotremorine.

rats [2] = assay: Interaction with apomorphine in rats; type: in vivo, rat; conditions: i.p.
Procedure: CRL 41 153 is administered to groups of 6 rats 0.5 hour before the subcutaneous injection of 0.5 mg/kg of apomorphine.

mice [3] = assay: Motility reduced by habituation to the enclosure; type: in vivo, mouse; conditions: i.p.
Procedure: After they have stayed In the actimeters for 18 hours, (he mice (6 per dose, 12 control animals) receive CRL 41 153. They are immediately returned to their respective enclosures and, half an hour later, their motility is recorded for 30 minutes.

mice [4] = assay: Interaction with barbital; type: in vivo, mouse; conditions: i.p., barbital 220 mg/kg
Procedure: Half an hour after the administration of CRL 41 153, groups of 10 mice receive an intraperitoneal injection of barbital (220 mg/kg).

CNS = assay: Neuropsychopharmacological profile as a whole; type: in vivo, mice and rats
Procedure: (§1) In the neuropsychopharmacological study which follows, a solution of CRL 41 153 in distilled water (pH 1.5) was administered intraperitoneally in a volume of 20 ml/kg to male mice and 5 ml/kg to male rats.

mice [5] = assay: Motility reduced by hypoxic aggression; type: in vivo, mouse; conditions: i.p.
Procedure: Half an hour after they have received CRL 41 153, the mice (10 per dose, 20 control animals) are subjected to acute hypobaric anoxia [pressure reduction of 600 mm Hg (i.e. about 8×10^4 Pa) in 90 seconds; release of vacuum in 45 seconds] and are then placed in an actimeter, where their motility is recorded for 10 minutes.

mice [6] = assay: Asphyxiant anoxia (gallamine triiodoethylate); type: in vivo, mouse; conditions: i.p., curarizing agent
Procedure: Groups of 10 mice receive CRL 41 153 half an hour before the intraperitoneal administration of 32 mg/kg of gallamine triiodoethylate (reference curarizing agent).

male mice = assay: Acute toxicity by intraperitoneal administration; type: in vivo, mouse; conditions: i.p.
Procedure: as §1

mice [7] = assay: Interaction with reserpine; type: in vivo, mouse; conditions: i.p.
Procedure: Four hours after the intraperitoneal injection of 2.5 mg/kg of reserpine, groups of 6 mice receive CRL 41 153.

mice [8] = assay: Four plate test, traction and electric shock; type: in vivo, mouse; conditions: i.p.
Procedure: The test is performed on groups of 10 mice 30 minutes after the administration of CRL 41 153.

rats [9] = assay: Interaction with amphetamine; type: in vivo, rat; conditions: i.p.
Procedure: Amphetamine (2 mg/kg) is injected intraperitoneally into groups of 6 rats 30 minutes after the administration of CRL 41 153. […] 4 mg/kg and 16 mg/kg, CRL 41 153 potentiates the intensity and duration of the stereotypies induced by amphetamine.

mice [10] = assay: Overall behavior and reactivities in mice; type: in vivo, mouse; conditions: i.p.
Procedure: as §1
(§2) Groups of three animals are observed before and then 0.25 hour, 0.50 hour, 1 hour, 2 hours, 3 hours and 24 hours after the administration of CRL 41 153.

rats [11] = assay: Investigation of stereotype movements; type: in vivo, rat; conditions: i.p., compared with amphetamine 2 mg/kg
Procedure: Immediately after the intraperitoneal administration of CRL 41 194 or amphetamine, groups of 6 rats are placed in Plexiglass boxes (20×10×10 cm). The stereotype movements are graded from 0 to 3 every 10 minutes until they wear off.
Groups of 6 rats receive an intraperitoneal injection of CRL 41 213, distilled water or amphetamine immediately before being placed in small cages, where their stereotype behavior is graded every 10 minutes until the effect wears off.

mice [12] = assay: Behavioral despair; type: in vivo, mouse; conditions: forcibly immersed mice, i.p.
From the text: Half an hour after they have received CRL 41 153, groups of 6 mice are placed in a beaker filled with water to a height of 6 cm. The total period of immobility between the 2nd and 6th minutes following immersion is noted.

[13] = tested on: gravid White New Zealand female rabbits; assay: Teratogenicity in gravid White New Zealand rabbits; type: in vivo, rabbit; conditions: dose 0 mg/kg [sic]
In short: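 Fetuses harvested by cesarean on gestation day 29 were scored for number and for any malformation (limb blockade, anury, tail or skull defects, exencephaly).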

[14] = pH of solutions in distilled water; type: physicochemical
Procedure: The neuropsychopharmacological study was undertaken according to the procedures described above for CRL 41 153, CRL 41 213 being adminstered intraperitoneally, in solution in distilled water, in a volume of 20 ml/kg to male mice and a volume of 5 ml/kg to male rats, and the pH of the injected solution varying with the concentration of CRL 41 213 according to the data given in Table II below.

mice [15] = assay: Interaction with apomorphine in mice; type: in vivo, mouse; conditions: i.p.
Procedure: Groups of 6 mice receive CRL 41 153 0.5 hour before the subcutaneous injection of 1 or 16 mg/kg of apomorphine.

mice [16] = assay: Intergroup aggressiveness; type: in vivo, mouse; conditions: i.p.
Procedure: After they have stayed for 3 weeks in the two halves of a cage divided by an opaque partition, groups of 3 mice receive CRL 41 153. Half an hour later, the two groups from the same cage are brought together by removal of the partition, and the number of fights which occur in 10 minutes is noted.

mice [17] = assay: Spontaneous motility; type: in vivo, mouse; conditions: i.p.
Procedure: 0.5 hour after they have received CRL 41 153, the mice (6 per dose, 12 control animals) are placed in an actimeter, where their motility is recorded for 30 minutes.

rats [18] = assay: Overall behavior and reactivities in rats; type: in vivo, rat; conditions: i.p.
Procedure: as §1, §2

Structure (SMILES): CCCNC(C)C(=O)c1ccc(N)cc1 (centres unmarked) [CRL 41 213]
- Effect on hypothermic action of oxotremorine (mice [1]): As from a dose of 4 mg/kg, CRL 41 213 opposes the hypothermic action of oxotremorine; also recorded: At the weakest dose studied (1 mg/kg), this effect is scarcely detectable
- Effect on trembling induced by oxotremorine (mice [1]): At the strongest doses (16 and 64 mg/kg), CRL 41 213 reduces the intensity of the trembling
- Action on the peripheral cholinergic symptoms (mice [1]; oxotremorine): does not change the signs of peripheral cholinergic stimulation produced by oxotremorine
- Effect on stereotypies induced by apomorphine (rats [2]): as from a dose of 2 mg/kg, CRL 41 213 causes an increase in the index of the stereotypes induced by apomorphine; also recorded: This increase is large in terms of intensity and duration at doses of 8 mg/kg and 32 mg/kg
- Motor activity of mice accustomed to their enclosure (mice [3]): at doses of 4 mg/kg, 16 mg/kg and 64 mg/kg, CRL 41 213 causes a resumption in the motor activity of mice accustomed to their enclosure
- Duration of the sleep induced by barbital (mice [4]): as from a dose of 0.5 mg/kg. CRL 41 213 reduces the duration of the sleep induced by barbital; also recorded: Total antagonism is obtained for doses equal to or greater than 4 mg/kg
- Anticonvulsant effects (overall) (CNS; conclusion of the tests): at high but non-toxic doses, CRL 41 213 causes the appearance of clonic convulsions but opposes the convulsant effects of electric shock
- Antidepressant effects (overall) (CNS; conclusion of the tests): possessing antidepressant, stimulant and arousing properties
- Stimulant effects (overall) (CNS; conclusion of the tests): possessing antidepressant, stimulant and arousing properties
- α-adrenergic stimulant effects (overall) (CNS; conclusion of the tests): effects reflecting peripheral α-adrenergic stimulation
- Peripheral α-adrenergic signs (mydriasis, salivation, lacrimation, exophthalmos) (CNS; species and dose not stated): mydriasis; also recorded: presence of salivation, lacrimation and exophthalmos
- Motor recovery of mice after hypobaric hypoxia (mice [5]): As from 1 mg/kg, CRL 41 213 causes a distinct improvement in the motor recovery
- Time taken for convulsions to occur (mice [6]): does not modify (he time taken for convulsions to occur
- Time taken for death to occur (mice [6]): at a dose of 64 mg/kg, it moderately increases the time taken for death to occur
- LD0 (maximum non-lethal dose) (male mice): greater than or equal to 128 mg/kg
- LD100 (male mice): less than or equal to 256 mg/kg
- Effect on hypothermia induced by reserpine (mice [7]): at doses of 1 mg/kg and 4 mg/kg, CRL 41 213 opposes the hypothermic action of reserpine; also recorded: at a weaker dose (0.25 mg/kg), no effect is detected
- Effect on ptosis induced by reserpine (mice [7]): at doses of 1 mg/kg and 4 mg/kg, CRL 41 213 opposes the hypothermic action of reserpine as well as the ptosis induced by reserpine; also recorded: at a weaker dose (0.25 mg/kg), no effect is detected
- Effect on convulsant effects of electric shock (mice [8]): opposes the convulsant effects of electric shock 116 to 64 mg/kg)
- Motor incapacity (traction) (mice [8]): causes motor incapacity (64 mg/kg)
- Number of punished passes in the four plate test (mice [8]): At doses of 1 mg/kg, 4 mg/kg and 16 mg/kg, CRL 41 213 causes an increase in the number of punished passes; also recorded: This increase is not present at the strongest dose used (64 mg/kg)
- Effect on stereotypies induced by amphetamine (rats [9]): as from a dose of 2 mg/kg, CRL 41 213 potentiates the stereotypies induced by amphetamine
- Observed symptoms (mice [10]; 1 mg/kg): moderate sedation 0.5 hour after administration
- Observed symptoms (mice [10]; 4 mg/kg): moderate excitation 0.5 hour after administration; also recorded: piloerection for 0.25 hour
- Observed symptoms (mice [10]; 16 mg/kg): excitation for more than 3 hours with the presence of stereotypies for about 2 hours as from the 1st hour following administration; also recorded: an increase in the fear reaction, the reactivity to touch and the aggressiveness for more than 3 hour; also recorded: salivation, lacrimation and exophthalmos for 1 hour; also recorded: polypnea
- Observed symptoms (mice [10]; 64 mg/kg): clonic convulsions for 0.5 hour; also recorded: excitation for more than 3 hours with the presence of stereotypies; also recorded: an increase in the fear reaction and the reactivity to touch from 2 hours to more than 3 hours; also recorded: mydriasis for more than 3 hours; also recorded: polypnea
- Stereotype movements (rats [11]): As from a dose of 2 mg/kg, CRL 41 213 causes the appearance of stereotype movements in rats, the intensity of which is substantially comparable to that obtained with 2 mg/kg of amphetamine; also recorded: Increasing the doses leads to an increase in the intensity and duration of these stereotypies
- Period of immobility due to despair (mice [12]): as from a dose of 0.5 mg/kg, CRL 41 213 distinctly reduces the period of immobility; also recorded: Total antagonism is obtained at doses of 4 mg/kg, 16 mg/kg and 64 mg/kg
- Affected foetuses, number [13]: 1
- Total foetuses (live) [13]: 84
- Affected foetuses, % ([13]; normal limit 1.5%): 1.19%
- pH ([14]; 0.2 g/liter in distilled water): 4.0
- pH ([14]; 0.4 g/liter in distilled water): 3.5
- pH ([14]; 0.8 g/liter in distilled water): 3.0
- pH ([14]; 1.6 g/liter in distilled water): 2.5
- pH ([14]; 3.2 g/liter in distilled water): 2.0
- pH ([14]; 25 g/liter in distilled water): 1.5
- pH ([14]; 50 g/liter in distilled water): 1.0
- pH ([14]; ≤0.1 g/liter in distilled water): 5.0
- Effect on hypothermia induced by apomorphine (mice [15]): at doses of 1 mg/kg, 4 mg/kg, 16 mg/kg and 64 mg/kg, CRL 41 213 strongly opposes the hypothermia induced by apomorphine in mice
- Effect on righting behavior and stereotypies induced by apomorphine (mice [15]): At the strongest dose studied (64 mg/kg), CRL 41 213 moderately reduces the righting behavior without modifying the stereotypies induced by apomorphine
- Number of fights / intergroup aggressiveness (mice [16]): does not modify the intergroup aggressiveness of mice
- Spontaneous motor activity (mice [17]): At doses of 1 mg/kg, 4 mg/kg and 16 mg/kg, CRL 41 213 causes a substantial increase in the spontaneous motor activity of mice; also recorded: At the strongest dose studied (64 mg/kg), CRL 41 213 causes clonic convulsions and stereotypies
- Observed symptoms (rats [18]; 0.5 mg/kg): mydriasis for 1 hour
- Observed symptoms (rats [18]; 2 mg/kg): excitation with the presence of stereotypies; also recorded: an increase in the fear reaction and in the reactivity to touch and noise for 2 hours
- Observed symptoms (rats [18]; 8 mg/kg): excitation with the presence of stereotypies; also recorded: an increase in the fear reaction and in the reactivity to touch and noise for 3 hours; also recorded: mydriasis for more than 3 hours
- Observed symptoms (rats [18]; 32 mg/kg): excitation with the presence of very intense stereotypies; also recorded: an increase in the fear reaction and in the reactivity to touch and noise for 3 hours; also recorded: exophthalmos from 0.5 hour to 3 hours; also recorded: mydriasis for 3 hours; also recorded: polypnea

— patent publication US4980377A, “1-(aminophenyl)-2-aminopropanone derivatives” (Laboratoire L. Lafon, priority 1984, dated 1990)
